Source: patent US6779468B1, “Method and pharmaceutical composition for iron delivery in hemodialysis and peritoneal dialysis patients” (priority 1997, dated 2004)
“And” between values parts separate entries of the source, which are not always exact repeats. Equal values may be shown once. “Also recorded” adds a separate entry of the source.

How the values were obtained:
[1] = literature reports; cited from earlier work
[2] = Phase I/II clinical study of dialysate iron in maintenance hemodialysis patients; format: in vivo, human; conditions: for reticulocyte hemoglobin (Retic-Hgb): month 2
Description: All subjects in the study were receiving maintenance hemodialysis for end stage kidney failure, and requiring erythropoietin and intravenous iron to maintain hemoglobin in the 10-12 gm/dl range. After obtaining an informed consent, patients were enrolled and oral iron was discontinued. All patients received maintenance intravenous iron (50-100 mg every 1-2 weeks) during a 4 week long pre-treatment phase. The last two weeks of this pre-treatment period were used to establish the “Baseline” serum iron and hematological parameters. In the Treatment Phase, ten patients were dialyzed with iron containing dialysate (Dialysate-Fe group) for a period of 4 months. […] Eleven control patients (IV-Fe Group) continued to receive 50-200 mg iron intravenously every 1-2 weeks, for the entire study period of 6.5 months.
The initial doses were 50 mg elemental iron weekly.
Increased availability of iron to marrow cells may improve responsiveness to erythropoietin, thereby raising the hemoglobin and hematocrit. Hemoglobin and hematocrit were monitored every week, and in the event of improved erythropoiesis, the doses of erythropoietin were reduced by 10% every two weeks or as needed, to maintain a stable hemoglobin.
According to the National Kidney Foundation-Dialysis Outcomes Quality Initiative (NKF-DOQI) recommendations, most hemodialysis patients should be administered intravenous iron with every dialysis session or every 1-2 weeks (maintenance therapy). […] This was the basis why the control group was maintained on regular doses of intravenous iron, while oral iron was discontinued. This being the standard of care, the subjects on maintenance intravenous iron (IV-Fe Group) served as the control against the experimental group receiving dialysate iron therapy (Dialysate-Fe Group).
A random number generator was used to generate a list of 24 numbers. Odd and even numbers were assigned A or B designation respectively. A list of 23 patients was created based on the order in which consent was obtained for participation in the study. Patients were assigned to groups A or B based on their order in the list.
When a relative iron deficiency was suspected bolus doses of 100-200 mg iron were administered intravenously with each dialysis, over 1-5 consecutive dialysis sessions.
Based on the NKF-DOQI guidelines, patients in IV-Fe group were prescribed maintenance amount of intravenous iron from 25 to 100 mg/week. When a relative iron deficiency was suspected, bolus doses of 100-200 mg iron were administered intravenously with each dialysis, over 5-10 consecutive dialysis sessions.
Except for plotting of individual patient variables over time, the iron study data has been summarized prior to analysis. Descriptive analysis was performed. Most of the analysis presented here, uses the data averaged over four or six/seven week intervals. A four week interval corresponds to the length of time each dose level was used during the dose escalation phase of the study. […] (See Figures 4-21)
The baseline period, labeled month 0, included data for the four weeks immediately prior to the start of the intervention. (There was some data available for some or all the fifth week prior to the intervention, but data from this week is omitted from the formal data analysis.)
Weeks 1 to 4, when the dialysate dose of 2 μg/dl was employed, are labeled month 1, weeks 5 to 8 labeled month 2, weeks 9 to 12 labeled ‘month 3’, weeks 13 to 16 labeled month 4, weeks 17 to 20 labeled month 5, and weeks 21 to 26 (or 27) are labeled month 6.

[3] = baseline, before treatment phase

Compound | hypocalcemia / toxic effects [1] | TIBC adjusted for the baseline values, versus IV-Fe group ([2]; at 6 months, p<0.05) | serum ferritin (mean±S.D.) [2, 3] [µg/L] | total iron binding capacity (TIBC, mean±S.D.) [2, 3] [µg/dL] | hematocrit cycling ([2]; dialysate route during every dialysis session) | reticulocyte hemoglobin (Retic-Hgb) [2] [pg] | average weekly dose of intravenous iron ([2]; month 6) [mg] | patients requiring additional intravenous iron supplements ([2]; month 6) | serum ferritin (mean±S.D.) ([2]; month 6) [µg/L] | maintenance of hemoglobin ([2]; over a period of 6 months) | patients in whom iron balance is maintained without supplemental oral or intravenous iron ([2]; over a period of 6 months) | reduction of requirements for intravenous iron ([2]; over a period of 6 months) | average weekly dose of intravenous iron ([2]; pretreatment period (month 0, baseline), all patients on maintenance intravenous iron) [mg] | requirement for intravenous iron ([2]; p≦0.002 with 8-12 μg/dl dialysate iron) | serum Fe and transferrin saturation (at 30 minutes of peritoneal dialysis, dialysate iron 500 μg/dl, day 21, P<0.03) | time for mean serum iron and transferrin saturation to increase into the normal range (iron deficient rabbits, dialysate iron 500 μg/dl, day 21) [min] | duration of increase in serum iron and transferrin saturation (peritoneal dialysis for a total of 2 hours) | average weekly dose of intravenous iron ([2]; pretreatment period (month 0, baseline), all patients on maintenance intravenous iron, listed as IV-Fe)
O=P([O-])([O-])OP(=O)([O-])[O-].[Sn+2].[Sn+2] [stannous pyrophosphate] | hypocalcemia and immediate toxic effects |  |  |  |  |  |  |  |  |  |  |  |  |  |  |  |  | 
Ferric pyrophosphate |  | significantly higher | 154 ± 120 | 222.3 ± 43.8 | abolishes hematocrit cycling | 28.4 ± 0.9 | 8.9 | 2 out of the 10 | 154 ± 120 | maintains hemoglobin without an increase in erythropoietin requirement | approximately 80% | about 80% | 68.7 | significantly reduced; also recorded: decline in intravenous iron requirement | significant increase | ≤ 30 | sustained for the duration of the experiment | 
iron dextran [reference compound] |  |  | 261 ± 211 | 192.7 ± 48.1 |  | 27.0 ± 1.0 | 56.2 |  | 261 ± 211 |  |  |  |  |  |  |  |  | 59.6 mg and 68.7 mg
